pKi: −log10 of the molar value. Structures can show the parent of a compound that is named as a salt. Where only a bound is given, the exact number is not on record here.

In the first experiment the target is human H4 receptor (Homo sapiens (Human), UniProt Q9H3N8). The experiment is described as follows: Binding assay on recombinant human histamine H4 receptor ([3H]histamine competition, SK-N-MC cell membranes). The following applies: membranes harvested with 96 well Brandel system; [3H]histamine 10 nM; average of results; read-out: Brandel Ki. The method, then: Binding Assay on Recombinant Human Histamine H4Receptor
Chain of human H4 receptor (Q9H3N8 whole entry): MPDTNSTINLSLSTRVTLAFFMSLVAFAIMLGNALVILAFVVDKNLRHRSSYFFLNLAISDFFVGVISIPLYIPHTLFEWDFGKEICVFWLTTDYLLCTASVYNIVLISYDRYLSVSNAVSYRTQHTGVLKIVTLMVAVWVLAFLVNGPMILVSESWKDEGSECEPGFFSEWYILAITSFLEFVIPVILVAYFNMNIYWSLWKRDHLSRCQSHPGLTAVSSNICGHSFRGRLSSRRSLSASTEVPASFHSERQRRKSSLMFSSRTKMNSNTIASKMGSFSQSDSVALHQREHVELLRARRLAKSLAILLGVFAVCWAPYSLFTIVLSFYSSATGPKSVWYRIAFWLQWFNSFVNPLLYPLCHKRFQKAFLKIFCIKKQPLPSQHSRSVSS
Cell pellets from SK-N-MC cells stably or transiently transfected with human H4 receptor (NCBI accession No. AF312230) were used for the binding assays. Cell pellets were homogenized in 50 mM Tris/5 mM EDTA buffer and supernatants from an 800 g spin were collected and recentrifuged at 30,000 g for 30 min. Pellets were rehomogenized in 50 mM Tris/5 mM EDTA buffer. […] Membranes were harvested by rapid filtration using the 96 well Brandel system (Table 1, Brandel) or a cell harvester (Table 1, Cell Harvester) using a Whatman GF/C filter or filter plates treated with 0.5% polyethylenimine (PEI), and washed 4 times with ice-cold 50 mM Tris/5 mM EDTA buffer. Filters were then dried, mixed with scintillant and radioactive counts were determined. […] Where activity is shown as greater than (>) a particular value, the value is the highest concentration tested.
In general, pKi refers to −log10 of the Ki, conventionally taken in molar units. As for `CN[C@@H]1CCN(c2cnnc(N[C@H]3C[C@H]4C[C@@H]([C@@H]3C)C4(C)C)c2)C1` [Example 97, 5-[(3R)-3-(Methylamino)pyrrolidin-1-yl]-N-[(1S,2S,3S,5R)-2,6,6-trimethylbicyclo[3.1.1]hept-3-yl]pyridazin-3-amine], the pKi was 8.23.

Take `CN[C@@H]1CCN(c2cnnc(NCC3CC3)c2)C1` [Example 99, N-(Cyclopropylmethyl)-5-[(3R)-3-(methylamino)pyrrolidin-1-yl]pyridazin-3-amine]: the pKi is 7.62. In the case of `N[C@@H]1CCN(c2ccnc(NC3CCOCC3)n2)C1` [Example 30, 4-[(3R)-3-Aminopyrrolidin-1-yl]-N-(tetrahydro-2H-pyran-4-yl)pyrimidin-2-amine], the negative-log Ki (pKi) is 7.37. Regarding `CN[C@@H]1CCN(c2ccnc(NC3CC4CCC3C4)c2)C1` (stereo partly drawn) [Example 1, Bicyclo[2.2.1]hept-2-yl[4-((3R)-3-methylamino-pyrrolidin-1-yl)-pyridin-2-yl]amine dihydrochloride], the pKi is 9.00.

The experiment is the same for the next values; noted with them: membranes harvested with cell harvester; [3H]histamine 10 nM; average of results; read-out: Cell Harvester Ki.
For the compound `CC1C(Nc2cc(N3CCNCC3)ccn2)C[C@H]2C[C@@H]1C2(C)C` (stereo partly drawn) [Example 269, 4-Piperazin-1-yl-N-[(1S,5R)-2,6,6-trimethylbicyclo[3.1.1]hept-3-yl]pyridine-2-amine], the pKi was 5.68. As for `CC1C(Nc2cc(N3CC[C@H](N)C3)ccn2)C[C@H]2C[C@@H]1C2(C)C` (stereo partly drawn) [Example 272, 4-[(3S)-3-Aminopyrrolidin-1-yl]-N-[(1S,5R)-2.6.6-trimethylbicyclo[3.1.1]hept-3-yl]pyridin-2-amine], the negative logarithm of the Ki (pKi) is 5.68. On the same count and under the same terms, in the case of `CNC1CN(c2ccnc(NCc3ccccn3)c2)C1` [Example 297, 4-[3-(Methylamino)azetidin-1-yl]-N-(pyridin-2-ylmethyl)pyridin-2-amine] it was 5.81; in that of `C[C@@H]1[C@@H](Nc2nccc(N3CCNCC3)n2)C[C@H]2C[C@@H]1C2(C)C` [Example 134, 4-Piperazin-1-yl-N-[(1S,2S,3S,5R)-2,6,6-trimethylbicyclo[3.1.1]hept-3-yl]pyrimidin-2-amine], 6.16. On the same count and under the same terms, in the case of `CC(C)Nc1cc(N2CC[C@@H](N)C2)ccn1` [Example 13, 4-[(3R)-3-Aminopyrrolidin-1-yl]-N-(1-methylethyl)pyridin-2-amine] it was 7.58. As for `CCCCNc1nccc(N2CC[C@H](N)C2)n1` [Example 196, 4-[(3S)-3-Aminopyrrolidin-1-yl]-N-butylpyrimidin-2-amine], the negative-log Ki (pKi) was 6.65.

Turning to `CN[C@@H]1CCN(c2cnnc(NCCCC(F)(F)F)c2)C1` [Example 386, 5-[(3R)-3-(Methylamino)pyrrolidin-1-yl]-N-(4,4,4-trifluorobutyl)pyridazin-3-amine], the pKi is 6.55. `CN1CCN(c2ccnc(NCC3CCCC3)n2)CC1` [Example 119, N-(Cyclopentylmethyl)-4-(4-methylpiperazin-1-yl)pyrimidin-2-amine]: the negative logarithm of the Ki (pKi) is 7.64.

As to `CC(C)CNc1cc(N2CC[C@@H](N)C2)cnn1` [Example 353, 5-[(3R)-3-Aminopyrrolidin-1-yl]-N-(2-methylpropyl)pyridazin-3-amine], the negative logarithm of the Ki (pKi) is 6.98.

On to `CC1(C)[C@H]2CC[C@H](CNc3cc(N4CC(N)C4)cnn3)[C@@H]1C2` [Example 306, 5-(3-Aminoazetidin-1-yl)-N-{[(1S,2S,5S)-6,6-dimethylbicyclo[3.1.1]hept-2-yl]methyl}pyridazin-3-amine], for which the pKi was 5.14. On to `CN[C@H]1CCN(c2cnnc(NCC(C)C)c2)C1` [Example 379, 5-[(3S)-3-(Methylamino)pyrrolidin-1-yl]-N-(2-methylpropyl)pyridazin-3-amine], for which the negative-log Ki (pKi) is 6.53. On to `Fc1ccc(CNc2cc(N3CCNCC3)cnn2)cc1` [Example 346, N-(4-Fluorobenzyl)-5-piperazin-1-ylpyridazin-3-amine], for which the pKi was below 5.00.

Turning to `CN1CCN(c2ccnc(NCC(C)(C)O)n2)CC1` [Example 120], the pKi was 6.52. Still for that read-out and setting: in the case of `CN1CCN(c2ccnc(NC[C@H]3CC[C@H]4C[C@@H]3C4(C)C)c2)CC1` [Example 221, N-{[(1S,2S,5S)-6,6-Dimethylbicyclo[3.1.1]hept-2-yl]methyl}-4-(4-methylpiperazin-1-yl)pyridin-2-amine] it was 6.07; in that of `CNC1CN(c2cnnc(NCCCC(F)(F)F)c2)C1` [Example 299, 5-[3-(Methylamino)azetidin-1-yl]-N-(4,4,4-trifluorobutyl)pyridazin-3-amine], 6.84. Consider `c1nnc(NC2CCCC2)cc1N1CCNCC1` [Example 354, N-Cyclopentyl-5-piperazin-1-ylpyridazin-3-amine], for which the negative-log Ki (pKi) is 5.67. For `CN[C@@H]1CCN(c2cnnc(N[C@H]3C[C@H]4C[C@@H]([C@@H]3C)C4(C)C)c2)C1` [Example 97, 5-[(3R)-3-(Methylamino)pyrrolidin-1-yl]-N-[(1S,2S,3S,5R)-2,6,6-trimethylbicyclo[3.1.1]hept-3-yl]pyridazin-3-amine], the negative-log Ki (pKi) is 8.23. Regarding `CN[C@@H]1CCN(c2ccnc(N[C@H](C)C3CCCCC3)c2)C1` [Example 209, N-[(1R)-1-Cyclohexylethyl]-4-[(3R)-3-(methylamino)pyrrolidin-1-yl]pyridin-2-amine], the pKi was 5.84. Consider `c1cc(N2CCNCC2)nc(NC[C@H]2CCCO2)n1` [Example 69, (R)-(4-Piperazin-1-yl-pyrimidin-2-yl)-(tetrahydro-furan-2-ylmethyl)-amine], for which the negative-log Ki (pKi) was below 5.00.

Take `Cc1ccc(CNc2nccc(N3CCNCC3)n2)cc1` [Example 156, N-(4-Methylbenzyl)-4-piperazin-1-ylpyrimidin-2-amine]: the pKi is 6.38.

As to `c1cc(N2C[C@H]3CCN[C@H]3C2)cc(NCC2CCCC2)n1` [Example 261, N-(Cyclopentylmethyl)-4-[(3aR,6aR)-hexahydropyrrolo[3,4-b]pyrrol-5(1H)-yl]pyridin-2-amine], the pKi was 5.45.

On to `CN[C@@H]1CCN(c2cnnc(N[C@H](C)C3CCCCC3)c2)C1` [Example 378, N-[(1R)-1-Cyclohexylethyl]-5-[(3R)-3-(methylamino)pyrrolidin-1yl]pyridazin-3-amine], for which the pKi is 8.21.

Regarding `CN[C@@H]1CCN(c2ccnc(NCC(C)(C)CO)n2)C1` [Example 169, 2,2-Dimethyl-3-({4-[(3R)-3-(methylamino)pyrrolidin-1-yl]pyrimidin-2-yl}amino)propan-1-ol], the negative-log Ki (pKi) is 8.01.

For the compound `NC1CCN(c2cnnc(NCC3CC4CCC3C4)c2)C1` (stereo in doubt) [Example 304, 5-[(3S)-3-Aminopyrrolidin-1-yl]-N-(bicyclo[2.2.1]hept-2-ylmethyl)pyridazin-3-amine], the pKi is 6.51. Consider `CNC1CN(c2ccnc(NC(C)(C)C)c2)C1` [Example 280, N-tert-Butyl-4-[3-(methylamino)azetidin-1-yl]pyridin-2-amine], for which the negative-log Ki (pKi) is 8.00. Consider `NC1CCN(c2cnnc(NCCCO)c2)C1` (stereo in doubt) [Example 338, 3-({5-[(3S)-3-Aminopyrrolidin-1-yl]pyridazin-3-yl}amino)propan-1-ol], for which the negative logarithm of the Ki (pKi) is below 5.00.

For the compound `CN1CCN(c2ccnc(NCCCO)c2)CC1` [Example 216, 3-{[4-(4-Methylpiperazin-1-yl)pyridin-2-yl]amino}propan-1-ol], the negative-log Ki (pKi) was 5.84. Same read-out and setting: in the case of `CC(C)(O)CNc1cc(N2CC[C@@H](N)C2)ccn1` [Example 279, 1-({4-[(3R)-3-Aminopyrrolidin-1-yl]pyridin-2-yl}amino)-2-methylpropan-2-ol] it was 6.56; in that of `CN[C@@H]1CCN(c2cnnc(NCC3CC3)c2)C1` [Example 99, N-(Cyclopropylmethyl)-5-[(3R)-3-(methylamino)pyrrolidin-1-yl]pyridazin-3-amine], 7.62.

Regarding `CC(C)(CO)CNc1nccc(N2CC[C@H](N)C2)n1` [Example 130, 3-({4-[(3S)-3-Aminopyrrolidin-1-yl]pyrimidin-2-yl}amino)-2,2-dimethylpropan-1-ol], the pKi was 6.07. Turning to `c1nnc(NCC2CC2)cc1N1CCNCC1` [Example 361, N-(Cyclopropylmethyl)-5-piperazin-1-ylpyridazin-3-amine], the pKi is 5.91. Regarding `N[C@@H]1CCN(c2ccnc(NC3CCOCC3)n2)C1` [Example 30, 4-[(3R)-3-Aminopyrrolidin-1-yl]-N-(tetrahydro-2H-pyran-4-yl)pyrimidin-2-amine], the pKi is 7.04. For the compound `COc1ccc(CNc2cc(N3CC[C@@H](N)C3)cnn2)cc1` [Example 341, 5-[(3R)-3-Aminopyrrolidin-1-yl]-N-(4-methoxybenzyl)pyridazin-3-amine], the negative logarithm of the Ki (pKi) is below 5.00.

Turning to `CN1CCN(c2cnnc(NC3CCCC3)c2)CC1` [Example 407, N-Cyclopentyl-5-(4-methylpiperazin-1-yl)pyridazin-3-amine], the negative logarithm of the Ki (pKi) is 6.08. Turning to `CN[C@H]1CCN(c2cnnc(NCC3CCC4CC3C4(C)C)c2)C1` (stereo partly drawn) [Example 394, N-[(6,6-Dimethylbicyclo[3.1.1]hept-2-yl)methyl]-5-[(3S)-3-(methylamino)pyrrolidin-1-yl]pyridazin-3-amine], the pKi was 6.20. Regarding `CN[C@@H]1CCN(c2ccnc(NC3CC4CCC3C4)c2)C1` (stereo partly drawn) [Example 1, Bicyclo[2.2.1]hept-2-yl[4-((3R)-3-methylamino-pyrrolidin-1-yl)-pyridin-2-yl]amine dihydrochloride], the negative logarithm of the Ki (pKi) is 9.30.

`c1ccc(CNc2nccc(N3CCNCC3)n2)nc1` [Example 157, 4-Piperazin-1-yl-N-(pyridin-2-ylmethyl)pyrimidin-2-amine]: the negative-log Ki (pKi) is 5.67.

As for `CNC1CN(c2cnnc(NCC(C)C)c2)C1` [Example 319, 5-[3-(Methylamino)azetidin-1-yl]-N-(2-methylpropyl)pyridazin-3-amine], the pKi is 6.32. On the same count and under the same terms, with `CN[C@@H]1CCN(c2ccnc(NCc3ccc(C)cc3)n2)C1` [Example 170, 4-[(3R)-3-(Methylamino)pyrrolidin-1-yl]-N-(4-methylbenzyl)pyrimidin-2-amine] the figure was 6.84; with `CN1CCN(c2ccnc(NCCCO)n2)CC1` [Example 161, 3-{[4-(4-Methylpiperazin-1-yl)pyrimidin-2-yl]amino}propan-1-ol], 5.89.

Consider `N[C@@H]1CCN(c2cnnc(NCCc3ccccc3)c2)C1` [Example 364, 5-[(3R)-3-Aminopyrrolidin-1-yl]-N-(2-phenylethyl)pyridazin-3-amine], for which the pKi is 5.76.

These data come from patent publication US9732087B2, “Diamino-pyridine, pyrimidine, and pyridazine modulators of the histamine H4 receptor” (JANSSEN PHARMACEUTICA NV, priority 2008, dated 2017).
